Results taken from patent US20260345654A1, “2,8-DIHYDROXYQUINOLINE GLUCURONIDE DERIVATIVES WITH ENHANCED PROPERTIES FOR USE AS ANTICANCER, ANTIVIRAL, ANTIMICROBIAL, AND OTHER THERAPEUTIC APPLICATIONS” (priority 2023, published 2026).
Entries after “also recorded” stand apart in the source; their conditions may differ. Read-outs that look alike come from different tables or passages of the source.

Tests used:
[1] = system: A2780, A549 and MDA-MB-231 cells; conditions: cited from earlier work; for improvement with the addition of copper: with vs without copper
[2] = topical treatment of skin cancer; cited from earlier work
Solubility = conditions: for solubility of copper complex: aqueous solutions
Chemical stability = type: physicochemical
cancer cell lines = conditions: comparison Table 5; prior art compound; cited from earlier work
RIF tumor = conditions: cited from earlier work
[3] = In vitro anti-proliferation of commercial G8HQ; type: cell-based
Protocol: The present inventors obtained a commercial sample of G8HQ and tested it in vitro under conditions with copper added and found a possible reading of >500 uM IC 50, indicating no anti-proliferative activity, but such examination was cursory and not conclusive. Of further relevance, Oliveri 2012 designed an O-linked glucose adducts to the 8-hydroxy position of both 8HQ and CQ (FIG. 17). The resulting pro-drug form as expected abrogated the copper binding and eliminated the anti-cancer activity. […] The authors reasoned that the glucose adduct would improve solubility, and the glucose receptors over-populated on the surface of cancer cells. The anaerobic metabolism and high dependence on glucose that characterizes most cancers is a phenomenon known as the “Warburg Effect”.

[4] = comparison Table 5; prior art compound; cited from earlier work
[5] = comparison Table 5; prior art compound; cited from earlier work; remark: listed apart in the source
[6] = iodinated drug; cited from earlier work
A549 cells = assay: In vitro anti-proliferation (CellTiter-Glo, 72 hr), A549; type: cell-based, human; conditions: Homo sapiens, A549, 72 h, 72 hr
Protocol: (§1) Commercially available 8HQ and freshly synthesized G2-8HQ were prepared for in vitro anti-proliferative studies against the following cell lines with and without the presence of 10 μM Cu(+2): (1) A549: […]; (2) BT-549: epithelial cells from ductal tumor; (3) DU-145: human prostate cancer; (4) PANC-1: pancreatic cancer; (5) SU.86.86: a new adoptive pancreatic cell for immunotherapy studies; (6) RL: non-Hodgkin's lymphoma; (7) LnCAP, Prostate cancer cell line; (8) A431, a squamous cell carcinoma line; and (9) UACC-62 a malignant melanoma cell line.
(§2) With regard to the study protocol used, the objective was to conduct a study of the cytotoxicity of W1469 against several cancer cell lines. In the study protocol, preparations for the A549 (Lung) cell line screen are given as an example. The following materials were used: (1) FBS (2) RPMI-1640 medium supplemented with 10% FBS:’ and (3) A549 Cells. The four samples tested are referred to as Items 1-4 below and were placed at 4 °C upon arrival. These four samples were as follows: • Item 1: Tube A (W1469) (500 uM when FBS added) • Item 2: Tube B (W1469g) (1000 uM when FBS added) • Item 3: Tube C (W1469) • Item 4: Tube D (W1469g)
Items 1 and 2 are sterile ready for the addition of 1 ml of sterile FBS. Final concentrations after addition of 1 ml: 500 μM for Tube A and 1000 μM for Tube B. Items 3 and 4 are described further below. In the protocol, media containing 10% FBS and 20 μM CuCl2 are used in Tubes C and D only. A and B are serially diluted in media with 10% FBS and no added copper.
The protocol method proceeds as follows:
Seed 2, 96-well plates of A549 cells with 5,000 cells per well in a total volume of 50 μL per well. Leave overnight. See plate layout below for which wells to seed with 100 μL of media for media control. The following day, cells are exposed to compounds as described below.
For Items 1 & 2, to make the 500 μM and 1000 μM Stocks of samples 1 and 2 (W1469 and W1469g): Add 1 ml of sterile FBS to each Tube A and Tube B, swirl to mix.
To make appropriate 2× final dilutions of sample 1, Tube A (W1469), the following amounts are used: • 500 μM: 10 mL as supplied • 100 μM: 2 mL 500 μM Sample+8 mL media • 30 μM: 3 mL 100 μM Sample+7 mL media • 10 μM: 3 mL 30 μM Sample+6 mL media • 3 μM: 3 mL 10 μM Sample+7 mL media • 1 μM: 3 mL 3 μM Sample+6 mL media • 0.3 μM: 3 mL 1 μM Sample+7 mL media • 0.1 μM: 3 mL 0.3 μM Sample+6 mL media
To make appropriate 2× final dilutions of sample 2, Tube B (W1469g), the following amounts are used: • 1000 μM: 10 mL as supplied • 300 μM: 3 mL 1000 μM Sample+7 mL media • 100 μM: 3 mL 300 μM Sample+6 mL media • 30 μM: 3 mL 100 μM Sample+7 mL media • 10 μM: 3 mL 30 μM Sample+6 mL media • 3 μM: 3 mL 10 μM Sample+7 mL media • 1 μM: 3 mL 3 μM Sample+6 mL media • 0.3 μM: 3 mL 1 μM Sample+7 mL media
For Items 3 & 4, the following protocol was used to make 1000 uM Stocks of samples 3 and 4 (W1469 and W1469g): • 1: Dissolve 3.37 mg W1469 and excipient (Tube C) in 1 ml RPMI medium without added FBS and copper and swirl briefly until completely dissolved. Add 9 ml of RPMI media containing 10% FBS and 20 uM copper. Swirl to mix. Sterile filter the 10 ml with provided syringes and filters. This is now the 1000 μM stock solution W1469 ready for screening • 2: Dissolve 3.2 mg W1469g and excipient (Tube D) in 1 ml RPMI medium without added FBS and copper and swirl briefly until completely dissolved. […] This is now the 1000 μM stock solution W1469g ready for screening. […]

RL cells = assay: In vitro anti-proliferation (CellTiter-Glo, 72 hr), RL; type: cell-based; conditions: for IC50: 72 hr, read-out: IC50
Protocol: as §1, §2
(§3) Add 50 μL of above 2× stocks to appropriate wells to expose appropriate cells to the final dilutions of samples. Add 50 μL media to media and cell control wells and 50 μL media mix to vehicle control wells. Cells are exposed for 72 hr. Following a 72 hr exposure to Sample, perform a CTG assay on all remaining plates.
(§4) At the end of the 72 hr exposure period, remove plates for CellTiter-Glo assay from 37 °C, 5% CO2 incubator and place on the bench at room temperature for 30 mins. Add 100 μL CellTiter-Glo reagent, mix for 2 mins, followed by a further 10 min incubation at room temperature. Record luminescence. Tables showing the resulting plate layouts are included below/

SU.86.86 cells = assay: In vitro anti-proliferation (CellTiter-Glo, 72 hr), SU.86.86; type: cell-based; conditions: Homo sapiens, SU.86.86, 72 h, 72 hr, read-out: IC50
Protocol: as §1, §2, §3, §4

BT-549 cells = assay: In vitro anti-proliferation (CellTiter-Glo, 72 hr), BT-549; type: cell-based; conditions: Homo sapiens, BT-549, 72 h, 72 hr, read-out: IC50
Protocol: as §1, §2, §3, §4

DU-145 cells = assay: In vitro anti-proliferation (CellTiter-Glo, 72 hr), DU-145; type: cell-based, human; conditions: Homo sapiens, DU-145, 72 h, 72 hr, read-out: IC50
Protocol: as §1, §2, §3, §4

PANC-1 cells = assay: In vitro anti-proliferation (CellTiter-Glo, 72 hr), PANC-1; type: cell-based; conditions: Homo sapiens, PANC-1, 72 h, 72 hr
Protocol: as §1, §2, §3, §4

[7] = +Cu (10 μM), G2-8HQ values based on MW of apo form (337)

SMILES: OC[C@H]1O[C@@H](Oc2c(I)cc(Cl)c3cccnc23)[C@H](O)[C@@H](O)[C@@H]1O [GluCQ, 5-chloro-7-iodo-8-quinolinyl-β-D-glucopyranoside]
- enhancement of IC50 by copper ([1]; 20 μM Cu^+2): 9 ×
- improvement with the addition of copper [1]: about 2 fold

SMILES: CC(C)Cn1cnc2c(N)nc3ccccc3c21 [Zyclara, Alara (Imiquimod), Imiquimod]
- Side Effects [2]: headache or backpain, Diarrhea; also recorded: Redness, bleeding or flaking skin, swelling,; also recorded: blistering, sting or pain. Fatigue or tiredness,

SMILES: O=C(O)[C@H]1O[C@@H](Oc2ccc3cccc(O)c3n2)[C@H](O)[C@@H](O)[C@@H]1O.[Cu+2] [G2-8HQ copper complex]
- solubility of copper complex (Solubility): highly soluble in aqueous solutions
- stability of copper complex (Chemical stability; in excipient, 24 hours): precipitation after 24 hours
- stability of copper complex (Chemical stability; pH values less than 8): rapid precipitated insoluble 2-8HQ copper complex

SMILES: OC[C@H]1O[C@@H](Oc2cccc3cccnc23)[C@H](O)[C@@H](O)[C@@H]1O [Glu8HQ, 8-quinolinyl beta-D-glucopyranoside]
- activity relative to Glu8CQ ([1]; 20 μM Cu^+2): 10 ×
- enhancement of IC50 by copper ([1]; 20 μM Cu^+2): 18 ×
- activity vs CQ analog ([1]; glucose derivatives, FIG. 18): greater activity than the CQ analog (GluCQ)
- improvement with the addition of copper [1]: 10-20 fold

SMILES: O=C(O)[C@H]1O[C@@H](Oc2cccc3cccnc23)[C@H](O)[C@@H](O)[C@@H]1O [G8HQ, 8-quinolinyl beta-D-glucopyranosiduronic acid]
- Active w/o Cu (cancer) (cancer cell lines): No
- tumor uptake (RIF tumor; after acidification of tumors by hyperglycemia, mice): rapid and significantly increased
- retention (RIF tumor; after tumor acidification, mice): prolonged retention in tumor and the colon over all other tissues
- tumor or general tissue partitioning (RIF tumor; initial animal experiments, no acidification, mice): no significant tumor or general tissue partitioning
- metabolic clearance / elimination time (RIF tumor; mice, post injection, listed as 8GHQ): 3 h
- activity ([3]; in vitro, without acidification): no activity
- IC50 ([3]; with copper added, cursory and not conclusive): > 500 µM
- Complexes w/copper [4]: No
- Solubility of Cu Complex/aqueous [5]: None

SMILES: NCC(=O)CCC(=O)O [Aminolaevulinic acid (Levulan), Aminolaevulinic acid]
- Side Effects [2]: Burning, Itching or Tingling, Rash or redness; also recorded: Light sensitivity (bright lights/sunshine)

SMILES: O=C(O)[C@H]1O[C@@H](Oc2cccc3cccnc23)[C@H](O)[C@@H](O)[C@@H]1O [GA8HQ]
- Active w/o Cu (cancer) (cancer cell lines): No
- Complexes w/copper [4]: No
- Solubility of Cu Complex/aqueous [5]: None, (8HQ poor)

SMILES: Oc1cccc2cccnc12.[Cu+2] [8HQ copper complex, reference compound]
- solubility of copper complex (Solubility): aqueous insoluble

SMILES: Oc1ccc2cccc(O)c2n1 [2-8HQ, 2,8-quinolinediol]
- solubility (Solubility; water / aqueous): poor aqueous solubility; also recorded: insoluble in aqueous systems

SMILES: O=c1[nH]cc(F)c(=O)[nH]1 [Fluorouracil]
- Side Effects [2]: tender skin, serious allergic reaction

SMILES: O=C(O)[C@H]1O[C@@H](Oc2cccc3c(I)ccnc23)[C@H](O)[C@@H](O)[C@@H]1O [4-iodo, 8-hydroxy beta-D-glucopyranosiduronic acid]
- excretion [6]: mainly urinary

SMILES: Oc1cccc2cccnc12 [8HQ, 8-hydroxyquinoline, reference compound]
- IC50 (A549 cells; [7]): 29 µM
- IC50 (A549 cells; −Cu): 12.7 µM
- IC50 (RL cells; [7]): 0.07 µM
- IC50 (RL cells; Homo sapiens, RL, 72 h, +Cu (10 μM), G2-8HQ values based on MW of apo form (337)): 0.06 µM
- IC50 (RL cells; Homo sapiens, RL, 72 h, −Cu): 0.62 µM
- increase of activity/cytotoxicity in presence of copper (RL cells; RL, +Cu^+2 (10 or 20 μM) vs −Cu): 9 fold
- solubility (Solubility; DMSO): soluble
- solubility (Solubility; water / aqueous): sparingly soluble
- IC50 (SU.86.86 cells; [7]): 46 µM
- IC50 (SU.86.86 cells; −Cu): > 50 µM
- IC50 (BT-549 cells; [7]): 24.5 µM
- IC50 (BT-549 cells; −Cu): 9.9 µM
- tissue levels of 8-OHQ (RIF tumor; all tissues, 2.0 to 24 hr after glucuronide injection, n = 3): These data points, with n = 3 animals, also failed to show significant tissue levels of 8-OHQ.
- IC50 (DU-145 cells; [7]): 11.6 µM
- IC50 (DU-145 cells; −Cu): 11.6 µM
- cytotoxicity change with addition of Cu^+2 ([1]; addition of Cu^+2 to the media): significantly increased the cytotoxicity
- activity relative to CQ ([1]; unmodified 8HQ vs CQ): 9 to 27 ×
- IC50 (PANC-1 cells; [7]): 11.2 µM
- IC50 (PANC-1 cells; −Cu): 9.3 µM
